Experimental data taken from patent US20170260121A1, “COMPOUND, PROCESS FOR PREPARING A COMPOUND, PHARMACEUTICAL COMPOSITION, USE OF A COMPOUND AND METHOD FOR TREATING CANCER” (FUNDAÇÃO OSWALDO CRUZ, priority 2014, published 2017).

Tests used:
[1] = tested on: K562 (leukemia) cells; experiment: anti-proliferative assay (MTT, 48 h); format: cell-based, human; settings: K562, 0.01 to 100 μM
Experimental: (§1) Example 6 was carried out to determine the biological activity of the following samples: (S)-perillyl alcohol, (S)-AP, (R)-AP, (S)-NAP, and (R)-NAP on human tumor lineages. (S)-perillyl alcohol was tested in combination with the samples of sodium acids and salts, because it is a substance which is considered to have some established clinical efficacy.
(§2) Samples (R)-AP, (S)-AP, (R)-NAP, (S)-NAP and perillyl alcohol (POH) were received and solubilized in DMSO or saline solution (NaCl 0.9%) and conserved at −20° C. until the day of the experiment, when they were immediately diluted before use, in a cell culture medium, DMEM, enriched with 10% fetal bovine serum, […] penicillin, and 0.1 mg/ml streptomycin, and 0.05 mg/ml gentamicin (DMEM complete medium). The experiments were carried out according to the Standard Operational Procedure of the Laboratory of Molecular Pharmacology FARMO1003 version 00, which are summarized below.
(§3) K562 (leukemia), LUCENA (multi-drug resistant leukemia), SKMEL28 (melanoma) and MCF7 (breast tumor) cells were cultivated on a DEM complete culture medium, and kept in log growth phase. Twenty-four hours before the treatment with the samples, 100 μl of the cell suspension (5×10^4 cells/ml) were added to wells of 96-well plates and kept in the oven at 5% CO2 atmosphere, at 37° C.
(§4) The treatment for each of the five samples was carried out in response dosage (0.01 to 100 μM; 5 spots), each concentration in triplicate.
(§5) After 48 hours, thiazolyl blue was added (MTT; SIGMA code M5655) and the plate was kept in the oven with CO2 for 4 hours. After the incubation time, the supernatant was aspirated and formazan crystals, formed by the cellular activity, were solubilized with isopropyl alcohol and, after full solubilization, the optical density determination was carried out in a microplate reader at 570 nm (VictorX5; Perkin Elmer USA).

[2] = tested on: Lucena (multi-drug resistant leukemia) cells; experiment: anti-proliferative assay (MTT, 48 h); format: cell-based, human; settings: 0.01 to 100 μM
Experimental: as §1, §2, §3, §4, §5

[3] = tested on: SKMEL28 (melanoma) cells; experiment: anti-proliferative assay (MTT, 48 h); format: cell-based, human; settings: SKMEL, 0.01 to 100 μM
Experimental: as §1, §2, §3, §4, §5

[4] = tested on: human colon adenocarcinoma (Caco-2); experiment: MTT viability test, (S)-NAP 24 h; format: cell-based; settings: Caco-2, NAP dosage 1.5-5.0 mM
Experimental: (§6) The effect of (S)-NAP on the viability of human colon adenocarcinoma cells with increasing degrees of malignancy was first evaluated. Caco2, HT-29, HCT-116 and a normal control cell MDCK, a […] kidney cell. Proliferation assays
(§7) (i) Cell cultures: Lineages of human colon adenocarcinoma cells with decreasing malignancy levels, HCT 116, HT-29 and Caco-2, were used. As a control of the epithelial cell model, a normal cell line of drainage epithelium (IEC-6) was used. These cells were cultured according to the ATCC specifications and maintained in a DMEM medium in an oven, with 5% CO2, at 37° C. until reaching semiconfluence.
(§8) (ii) Treatments: Initially, concentrations of sodium perylate (1.0, 1.8, 2.6, 3.4, 4.2 and 5.0 mM) were tested to determine the IC50 of the drug. Monolayers of semiconfluent cells were serum-depleted for 24 hours before treatment with (S)-NAP and during the treatment for 24 h.
(§9) (iii) Viability test: The lineages were plated in 96-well flat-bottom plates with DMEM culture medium containing the different (S)-NAP concentrations described above. Cell incubation with (S)-NAP was conducted for 24 h, at 37° C., upon which, the plates were incubated for 2 h with MTT [3-(4,5-dimethylthiazol-2-yl)-2,5diphenyltetrazolium bromide] 2.5 mg/ml, at a final concentration of 250 μg/ml. The plates were centrifuged at 1200 RPM, at 4° C., for 5 minutes, poured to remove the supernatant, since the crystals had deposited inside the cells. Formazan crystals were dissolved into […] of DMSO and homogenized manually and through the device. Absorbances were determined at 538 nm in a plate reader (Spectra Max 190). Controls of 100% viability, with no drug addition, and of 0% viability using formaldehyde were carried out simultaneously with the experiment.

[5] = tested on: human colon adenocarcinoma (HCT-116); experiment: MTT viability test, (S)-NAP 24 h; format: cell-based; settings: HCT-116, NAP dosage 1.0-5.0 mM
Experimental: as §6, §7, §8, §9

[6] = tested on: human colon adenocarcinoma (HT-29); experiment: MTT viability test, (S)-NAP 24 h; format: cell-based; settings: HT-29, NAP dosage 1.5-5.0 mM, concentration limited by NAP solubility
Experimental: as §6, §7, §8, §9

[7] = tested on: MCF7 (breast tumor) cells; experiment: anti-proliferative assay (MTT, 48 h); format: cell-based, human; settings: MCF7, 0.01 to 100 μM
Experimental: as §1, §2, §3, §4, §5

[8] = solubility in an aqueous medium; format: physicochemical; settings: relative to POH and PA

Compound	inhibition (in words) [3]	inhibition (in words) [7]	also measured
C=C(C)C1CC=C(C(=O)[O-])CC1.[Na+] (stereo in doubt) [(R)-NAP, sodium perylate]	no inhibition making IC50 calculation necessary		IC50 [1]: 1.24 µM; IC50 [2]: 0.013 µM
C=C(C)[C@@H]1CC=C(C(=O)[O-])CC1.[Na+] [(S)-NAP, sodium perylate]		no inhibition making IC50 calculation necessary	Result (viability) [4]: Refractory; IC50 [5]: > 3400 µM; IC50 [6]: > 5000 µM
C=C(C)[C@@H]1CC=C(C(=O)O)CC1 [(S)-PA, perillic acid, reference compound]	no inhibition making IC50 calculation necessary	no inhibition making IC50 calculation necessary	
C=C(C)[C@H]1CC=C(C(=O)O)CC1 [(R)-PA, perillic acid]		no inhibition making IC50 calculation necessary	
C=C(C)[C@@H]1CC=C(CO)CC1 [POH, perillyl alcohol]		no inhibition making IC50 calculation necessary	
C=C(C)C1CC=C(C(=O)[O-])CC1.[Na+] (stereo not drawn) [NAP, sodium perylate]			solubility in an aqueous medium compared with POH and PA [8]: higher
